In PMC10666288, “Unveiling the Catalytic Mechanism of a Processive Metalloaminopeptidase” (Biochemistry, 2023):
Where two headings read alike, the source gives them in different places.

Experiments:
Format in all cases: biochemical
Design in all cases: GG stays after cleavage) (N); made in house; host or cells: E. coli BL21(DE3)
[1] = target: T1, PaPepA (Pseudomonas aeruginosa, UniProt Q02RY8); conditions: aa-pNA varied, 3 mM MnCl2, 100 nM PaPepA, pH 8.0, 25 °C
Protocol: (§1) A BMG Labtech POLARstar Omega plate reader was used for activity assays and kinetic studies involving amino acids conjugated to para-nitroaniline (pNA) (Sigma) or peptides as substrates. Assays were carried out at 25 °C in clear half-area 96-well plates (Greiner Bio-One). […] For kinetic assays investigating Leu-AMC as a substrate, a SpectraMax M2E was used. Reactions were carried out using black half-area 96-well plates with clear bottoms (Greiner Bio-One). Product formation was assessed by monitoring changes in fluorescence, with the excitation wavelength set at 341 nm and emission at 441 nm. The cutoff was 420 nm. PMT gain was set to medium, with six flashes per read. […] Calibration curves of pNA concentration vs absorbance and AMC vs fluorescence were constructed, and initial rate values were divided by the slope of these calibration curves to reveal the rate of product formation over time (Table S2).
(§2) For all assays excluding pH dependence curves, buffer conditions were as follows: 100 mM HEPES, 50 mM KCl, and pH 8.0. For assays carried out under pseudo-first-order conditions, one reaction component was fixed and in excess, while the other was varied. […] For assays involving variation of aa-pNA or aa-AMC, MnCl2 was added to a final concentration of 3 mM.

[2] = target: T1, PaPepA; experiment: Metal activation of Leu-pNA cleavage (metal varied, Leu-pNA fixed); conditions: with 2 mM Leu-pNA, pH 8.0
Protocol: as §1, §2

[3] = target: T1, PaPepA; experiment: Pre-steady-state stopped-flow kinetics with global fit; conditions: global fit
Protocol: An Applied Photophysics SX20 stopped-flow spectrofluorimeter was used to perform kinetic measurements under pre-steady-state conditions. The instrument was equipped with a xenon lamp, a 5 μL mixing cell, and a circulating water bath to maintain constant temperature. All reactions were carried out in 100 mM HEPES (pH 8.0) and 50 mM KCl at 25 °C. Enzyme and metal ions were kept in one syringe, while the other substrate (Leu-pNA or Leu-AMC) was kept in the second syringe. The reaction was triggered by rapid mixing of 55 μL from each syringe. Three traces with 10,000 points per trace were collected per experiment.
For absorbance measurements, product formation was monitored by reading the pNA absorbance at 405 nm (5 mm path length). Multiple turnover rates were measured in the presence of saturating concentrations of both metal and Leu-pNA. PaPepA was present at 1 or 10 μM, MnCl2 was present at 3 mM, and Leu-pNA was present at 250 μM. For fluorescence measurements, a path length of 1 mm was used. Reactions were followed by monitoring the appearance of a 7-amino-4-methylcoumarin (AMC) fluorophore following PaPepA-catalyzed breakdown of Leu-AMC. An excitation wavelength of 341 nm was used with a 400 nm cutoff filter for the emission. Slits were 1 nm for excitation and 2 nm for emission.
Experiments under single turnover conditions monitored fluorescence change with a detector voltage of 300 V, 0.1 μM Leu-AMC, 1.5 mM MnCl2, and varying PaPepA (0.5, 1, 2, 4, 8, 16, or 32 μM). Experiments under multiple turnover conditions monitored fluorescence change with a detector voltage of 250 V, 50 μM Leu-AMC, 1.2 μM PaPepA and varying concentrations of MnCl2 (0.2, 0.4, 0.6, 1.2, 2.4, 6, 9, 12, 18, 24, 60, 120, 1200, or 3600 μM).
Calibration curves of known concentrations of AMC were performed at detector voltages of 250 and 300 V. STO and MTO curves were divided by the slope of these calibration curves to convert the change in fluorescence observed to the concentration of AMC produced.
Pre-steady-state data were imported into KinTek Global Explorer and fit to linear or single-exponential equations using the aFit function to obtain standard deviation estimates. A kinetic model with five steps was considered, and rate constants and outputs were fitted according to this model. Initial estimates for rate constants were based on kcat and KM values. The FitSpace Editor was employed to determine confidence intervals for each of the rate constants. More details including model fitted and parameters used are available in the Supporting Information.
Supporting information note 4: Kintek Global Explorer fitting of stopped flow data Both MTO and STO pre-steady-state data were fit according to the mode described in Figure 4A with scaling factors for each fluorescent species (EP and P) to account for differences in AMC fluorescence whilst in complex with PaPepA versus free in solution. Scaling factors were different across STO and MTO experiments as both were carried out using different detector voltages.
The model that best fitted acquired data was as below, where F is metal free enzyme, E1 is PaPepA with one Mn2+ ion, E is PepA with two Mn2+ ions, S is Leu- […]
For fitting, k1 and k-1 ratios were constrained (linked) based KD for Mn2+ binding as measured by ITC (12nM). Initially, k2 and k-2 were allowed to vary without constraints, and values best fitted as well as Fitspace lower and upper boundaries are reported in Table 2. The value for k1 was best fitted as diffusion limited, and therefore was fixed in further fitting cycles. The best fitted value for k-2 was high and unconstrained, and therefore also fixed at 1000 s-1 for further fitting cycles. k3, k-3, k4, and k5 were not constrained. Multiple iterations of fitting were performed, and best fit values recorded. k1, k2, k3, k-3, k4, and k5 were evaluated using FitSpace Explorer to generate confidence intervals for each of these rate constants. […]

[4] = target: T1, PaPepA; conditions: 5 % PEG 8000, labelled component varied, other saturating; in 1/s
[5] = target: T1, PaPepA; conditions: labelled component varied
From the text: Viscosity effects were studied by using sucrose as a viscogen. Relative viscosities for different concentrations of sucrose were taken from Bazelyansky et al.[27] Concentrations of viscogen were as follows: 14% sucrose, ηrel = 1.5; 24% sucrose, ηrel = 2.2; and 32% sucrose, ηrel = 2.9.
Viscosity effects were fit to the following equation, where kinetic parameter0 and kinetic parameterη are kcat or kcat/KM in the […] of viscogen, respectively, ηrel is the relative viscosity of the solution, and m is the slope. [drawing 4] 4
All measurements were performed in triplicate.

[6] = target: T1, PaPepA; experiment: Alcohol dehydrogenase peptide degradation assay (LC-MS); conditions: MassPREP ADH digest, 100 nM PaPepA, 3 mM MnCl2, overnight
Protocol: A vial of MassPREP ADH digestion standard (Waters) was reconstituted in 200 μL of LC-MS grade water. Reaction mixtures were prepared by combining 25 μL of ADH solution, 3 mM MnCl2, and 100 nM PaPepA (final concentrations) in a total volume of 50 μL buffer (100 mM HEPES pH 8.0, 50 mM KCl). For control reactions, the addition of PaPepA was omitted. Samples and controls were each prepared in triplicate and incubated overnight, and reactions quenched with the addition of […] of 10% TCA. Following the addition of acid, PaPepA was added to control samples to a final concentration of 50 nM (equivalent to a concentration of enzyme in the reaction samples following acid quenching). Samples were concentrated to 20 μL. A 1 μL portion of this was diluted in 100 μL of LC-MS grade water. 10 μL was injected and analyzed on a SCIEX TripleTOF 5600+ mass spectrometer with an Eksigent 425 nanoLC configured in trap elute configuration. Each sample was loaded onto the trap (Waters ACQUITY M-Class symmetry column 180 μm × 20 mm) and washed with 0.05% TFA in water for 5 min at 5 μL/min. The trap was then switched in line with the Waters M-Class HSS1 analytical column, 75 μm × 150 mm, with a flow rate of 300 nL/min. Samples were eluted over 30 min using a linear gradient from 98% A (100% water 0.1% FA) 2% B (80% MeCN, […] 0.1% FA) to 60% A, 40% B linearly over 12 min, rising to 5% A, 95% B, before returning to 98% A to re-equilibrate. Eluate from the column was sprayed directly into the nanospray source of the mass spectrometer. MS data were collected from 400 to 1250 m/z as the survey scan, and under data-dependent acquisition (DDA) setting, the top 20 strongest peptides were selected for MS/MS using CID fragmentation. Peptide mass tolerance was 20 ppm on the MS and 0.1 Da on the MS/MS.
Identification and analysis of ADH peptides were performed using the Skyline open-access software package (version 22.2). Raw data were extracted using msConvert (ProteoWizard) and the data searched using Skyline against the ADH1 sequence from Saccharomyces cerevisiae (UniProt: P00330). The digestion enzyme was set as trypsin, allowing up to three missed cleavages. Searches encompassed peptides between 400 and 1250 m/z with a mass tolerance of 0.3 m/z. Carbamidomethyl was set as a fixed modification for cysteine residues. Data were searched for the protonated 1+, 2+, and 3+ charge states of each peptide.
Peaks were integrated, and areas were used to qualitatively assess differences in peptide abundances across PaPepA-digested samples and controls. Peptides present in control samples but absent in reactions (integrated area <1000) were classified as “digested”.

T1 sequence (Q02RY8 whole entry): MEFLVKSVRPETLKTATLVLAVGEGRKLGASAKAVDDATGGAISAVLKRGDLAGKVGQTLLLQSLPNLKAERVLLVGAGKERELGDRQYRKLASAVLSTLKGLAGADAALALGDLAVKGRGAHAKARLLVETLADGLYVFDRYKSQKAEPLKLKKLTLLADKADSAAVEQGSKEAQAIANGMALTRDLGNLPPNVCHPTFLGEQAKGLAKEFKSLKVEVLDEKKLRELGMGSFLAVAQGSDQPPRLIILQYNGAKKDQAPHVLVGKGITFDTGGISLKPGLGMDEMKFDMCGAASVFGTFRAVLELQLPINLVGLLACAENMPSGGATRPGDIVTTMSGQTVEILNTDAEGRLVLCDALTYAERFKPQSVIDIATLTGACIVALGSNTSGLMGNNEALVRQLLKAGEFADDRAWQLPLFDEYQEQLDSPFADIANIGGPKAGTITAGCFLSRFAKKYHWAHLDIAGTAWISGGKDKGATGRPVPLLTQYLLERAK

## C[C@H](N)C(=O)Nc1ccc([N+](=O)[O-])cc1 [Ala-pNA]
[1]
  Km: 220 ± 30 µM
  kcat: 0.037 ± 0.001 s^–1

## [Co+2] [Co^2+]
[2]
  KACT: 0.17 ± 0.01 mM
  kcat: 0.137 ± 0.002 s^–1
  kcat/KACT: 0.80 ± 0.06 s^–1mM^–1

## [Fe+2] [Fe^2+]
[2]
  KACT: >10 mM
  kcat: 0.012 ± 0.003 s^–1

## CCC(C)[C@H](N)C(=O)Nc1ccc([N+](=O)[O-])cc1 (some centres unmarked) [Ile-pNA]
[1]
  Km: 100 ± 30 µM
  kcat: 0.004 ± 0.000 s^–1

## Cc1cc(=O)oc2cc(NC(=O)[C@H](N)CC(C)C)ccc12 [Leu-AMC]
[3]; E + S = ES, S is Leu-AMC
  k3, best-fitted value: 2.3 ± 0.1 μM^–1 s^–1
[3]; E + S = ES, reverse, S is Leu-AMC
  k-3, best-fitted value: 47.9 ± 0.6 s^–1
[3]; EP = E + P
  k5, best-fitted value: 13.4 ± 0.1 s^–1
[3]; ES = EP
  k4, best-fitted value: 6.3 ± 0.1 s^–1

## CC(C)C[C@H](N)C(=O)Nc1ccc([N+](=O)[O-])cc1 [Leu-pNA, reference compound]
[4]
  kcat: 0.391 ± 0.008
[1]
  Km: 160 ± 10 µM
  kcat: 0.254 ± 0.005 s^–1
[5]; H2O (0% PEG-8000), other saturating, in 1/s
  kcat: 0.335 ± 0.004
[5]; sucrose as viscogen
  Slope (sucrose) on kcat: 0.03 ± 0.01

## NCCCC[C@H](N)C(=O)Nc1ccc([N+](=O)[O-])cc1 [Lys-pNA]
[1]
  Km: 280 ± 40 µM
  kcat: 0.039 ± 0.002 s^–1

## CSCC[C@H](N)C(=O)Nc1ccc([N+](=O)[O-])cc1 [Met-pNA]
[1]
  Km: 150 ± 20 µM
  kcat: 0.084 ± 0.003 s^–1

## [Ni+2] [Ni^2+]
[2]
  KACT: 2.5 ± 0.4 mM
  kcat: 0.077 ± 0.003 s^–1
  kcat/KACT: 0.032 ± 0.005 s^–1mM^–1

## N[C@@H](Cc1ccccc1)C(=O)Nc1ccc([N+](=O)[O-])cc1 [Phe-pNA]
[1]
  Km: 260 ± 50 µM
  kcat: 0.115 ± 0.008 s^–1

## O=C(Nc1ccc([N+](=O)[O-])cc1)[C@@H]1CCCN1 [Pro-pNA]
[1]
  kcat: 0.081 ± 0.003 s^–1
[1]; read-out: KM
  Km: 1200 ± 80 µM

## CC(C)[C@H](N)C(=O)Nc1ccc([N+](=O)[O-])cc1 [Val-pNA]
[1]
  Km: 50 ± 40 µM
  kcat: 0.002 ± 0.001 s^–1

## EKDIVGAVLK [tryptic peptide of yeast ADH (MassPREP digestion standard)]
[6]
  Cleaved?: Not digested

## GVIFYESHGK [tryptic peptide of yeast ADH (MassPREP digestion standard)]
[6]
  Cleaved?: Digested (Peptides present in control samples but absent in reactions (integrated area <1000) were classified as “digested”)

## VLGIDGGEGK [tryptic peptide of yeast ADH (MassPREP digestion standard)]
[6]
  Cleaved?: Digested (Peptides present in control samples but absent in reactions (integrated area <1000) were classified as “digested”)

## YSGVC[+57.0]HTDLHAWHGDWPLPVK: tryptic peptide of yeast ADH, carbamidomethyl cysteine
[6]
  Cleaved?: Digested (Peptides present in control samples but absent in reactions (integrated area <1000) were classified as “digested”)
